ChEMBL document CHEMBL3739366, “Discovery of HTL6641, a dual orexin receptor antagonist with differentiated pharmacodynamic properties” (Medchemcomm, 2015)
Calls of active or inactive are those of the source. The rule behind the calls is not given here.

Columns and labels:
[1] = system: Salmonella typhimurium; test: Genotoxicity in Salmonella typhimurium by Ames test in presence of S9 fraction; type: toxicity, organism-based; details: salmonella enterica subsp. enterica serovar typhimurium
[2] = Plasma protein binding in mouse; type: ADME, cell-free; details: read-out: PPB (converted)
[3] = system: Rattus norvegicus; test: Antiinsomnic activity in CD1 rat assessed as increase of NREM sleep at 10 mg/kg, po administered at circadian time 18 hrs measured after 3 hrs; type: functional
[4] = Half life in rat liver microsomes; type: ADME
[5] = Bidirectional apparent permeability of the compound across human Caco2 cells; type: ADME, cell-based; details: Caco-2, read-out: permeability
[6] = molecular target: Cytochrome P450 2D6 (Homo sapiens, UniProt P10635); test: Inhibition of CYP2D6 (unknown origin); type: ADME
Sequence of Cytochrome P450 2D6 (P10635 whole entry): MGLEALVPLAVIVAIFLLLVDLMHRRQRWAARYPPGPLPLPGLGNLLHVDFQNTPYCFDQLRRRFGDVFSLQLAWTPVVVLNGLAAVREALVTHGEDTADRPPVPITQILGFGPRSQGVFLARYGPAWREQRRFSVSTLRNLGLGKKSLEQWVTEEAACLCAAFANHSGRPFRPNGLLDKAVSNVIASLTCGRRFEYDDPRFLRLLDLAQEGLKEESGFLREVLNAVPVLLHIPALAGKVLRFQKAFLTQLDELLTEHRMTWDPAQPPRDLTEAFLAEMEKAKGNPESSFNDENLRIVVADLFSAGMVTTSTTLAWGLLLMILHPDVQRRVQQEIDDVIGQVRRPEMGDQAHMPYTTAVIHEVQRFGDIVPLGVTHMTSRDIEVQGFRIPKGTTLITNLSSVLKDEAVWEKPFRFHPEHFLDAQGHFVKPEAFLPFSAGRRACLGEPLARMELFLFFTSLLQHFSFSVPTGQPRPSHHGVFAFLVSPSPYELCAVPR

[7] = Tmax in beagle dog at 1 mg/kg, po; type: ADME, organism-based, Canis lupus familiaris; details: in vivo
[8] = molecular target: Cytochrome P450 2C9 (Homo sapiens, UniProt P11712); test: Inhibition of CYP2C9 (unknown origin); type: ADME
Sequence of Cytochrome P450 2C9 (P11712 whole entry): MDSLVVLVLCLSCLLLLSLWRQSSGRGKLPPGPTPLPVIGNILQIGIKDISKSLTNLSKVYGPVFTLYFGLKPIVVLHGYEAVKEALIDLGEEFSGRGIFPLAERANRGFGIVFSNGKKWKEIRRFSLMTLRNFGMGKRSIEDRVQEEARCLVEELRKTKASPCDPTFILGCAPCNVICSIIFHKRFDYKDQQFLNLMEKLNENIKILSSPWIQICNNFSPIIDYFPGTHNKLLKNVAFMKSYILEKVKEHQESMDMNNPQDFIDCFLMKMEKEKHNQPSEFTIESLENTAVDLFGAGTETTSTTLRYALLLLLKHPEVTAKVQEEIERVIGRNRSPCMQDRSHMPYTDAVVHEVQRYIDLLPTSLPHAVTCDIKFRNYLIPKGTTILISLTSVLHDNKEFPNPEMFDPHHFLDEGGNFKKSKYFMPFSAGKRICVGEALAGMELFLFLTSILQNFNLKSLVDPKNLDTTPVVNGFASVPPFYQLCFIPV

[9] = system: Rattus norvegicus; test: Antiinsomnic activity in CD1 rat assessed as reduction of time taken for latency to first REM episode at 10 mg/kg, po administered at 18 hrs after circadian time; type: functional; parameters: scale not given: the % may be the effect or the level left
[10] = Half life in dog hepatocytes; type: ADME, cell-based, Canis lupus familiaris, Hepatocyte
[11] = molecular target: T1, Orexin receptor type 2 (Homo sapiens, UniProt O43614); test: Displacement of [3H]EMPA from human orexin receptor-2 expressed in HEK293 cells after 90 mins by scintillation counting; type: cell-based
T1 sequence (O43614 whole entry): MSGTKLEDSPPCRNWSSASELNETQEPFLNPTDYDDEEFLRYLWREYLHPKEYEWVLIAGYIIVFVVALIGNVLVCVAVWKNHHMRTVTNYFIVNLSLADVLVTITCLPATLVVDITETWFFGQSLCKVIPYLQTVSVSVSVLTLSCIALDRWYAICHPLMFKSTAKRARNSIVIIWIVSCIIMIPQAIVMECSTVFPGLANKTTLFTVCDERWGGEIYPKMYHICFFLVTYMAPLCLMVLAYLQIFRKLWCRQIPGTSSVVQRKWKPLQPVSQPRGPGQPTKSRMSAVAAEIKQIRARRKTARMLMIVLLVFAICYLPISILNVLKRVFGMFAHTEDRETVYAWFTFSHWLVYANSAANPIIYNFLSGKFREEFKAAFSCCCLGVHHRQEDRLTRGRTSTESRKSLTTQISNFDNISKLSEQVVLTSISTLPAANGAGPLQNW

[12] = Clearance in beagle dog at 1 mg/kg, iv; type: ADME, organism-based, Canis lupus familiaris; details: in vivo
[13] = molecular target: T2, Orexin receptor type 2 (Homo sapiens) (UniProt O43614); details: CHO
T2 sequence (whole entry): T1 sequence (O43614 whole entry)
Description: Antagonist activity at human orexin receptor-2 expressed in CHO cells assessed as orexin-A-induced ERK1/2 phosphorylation after 2 hrs by fluorescence assay

[14] = system: Canis familiaris; test: AUC (infinity) in beagle dog at 1 mg/kg, po; type: ADME, organism-based, Canis lupus familiaris; parameters: dose 1 mg/kg, route oral, time infinity; details: in vivo
[15] = Ratio of drug level in brain to plasma in Sprague-Dawley rat at 1 mg/kg, iv after 0.5 hrs; type: ADME, organism-based; details: read-out: BPR
[16] = molecular target: Cytochrome P450 3A4 (Homo sapiens, UniProt P08684); test: Inhibition of CYP3A4 (unknown origin); type: ADME
Sequence of Cytochrome P450 3A4 (P08684 whole entry): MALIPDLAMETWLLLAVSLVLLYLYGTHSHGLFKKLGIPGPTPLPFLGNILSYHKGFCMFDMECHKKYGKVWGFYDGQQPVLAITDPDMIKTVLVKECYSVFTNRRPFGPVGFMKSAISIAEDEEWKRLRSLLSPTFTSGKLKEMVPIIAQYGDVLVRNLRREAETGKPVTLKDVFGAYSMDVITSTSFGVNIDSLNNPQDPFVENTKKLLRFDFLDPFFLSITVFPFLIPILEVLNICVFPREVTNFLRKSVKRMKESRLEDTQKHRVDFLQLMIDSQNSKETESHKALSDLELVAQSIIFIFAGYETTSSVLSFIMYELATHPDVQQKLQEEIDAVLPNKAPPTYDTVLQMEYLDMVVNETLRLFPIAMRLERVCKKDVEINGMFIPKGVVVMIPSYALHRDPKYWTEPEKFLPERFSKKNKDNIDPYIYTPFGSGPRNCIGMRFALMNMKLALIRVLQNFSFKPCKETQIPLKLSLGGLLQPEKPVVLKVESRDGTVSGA

[17] = Half life in cynomolgus monkey hepatocytes; type: ADME, cell-based, Macaca fascicularis, Hepatocyte
[18] = molecular target: Cytochrome P450 2C19 (Homo sapiens, UniProt P33261); test: Inhibition of CYP2C19 (unknown origin); type: ADME
Sequence of Cytochrome P450 2C19 (P33261 whole entry): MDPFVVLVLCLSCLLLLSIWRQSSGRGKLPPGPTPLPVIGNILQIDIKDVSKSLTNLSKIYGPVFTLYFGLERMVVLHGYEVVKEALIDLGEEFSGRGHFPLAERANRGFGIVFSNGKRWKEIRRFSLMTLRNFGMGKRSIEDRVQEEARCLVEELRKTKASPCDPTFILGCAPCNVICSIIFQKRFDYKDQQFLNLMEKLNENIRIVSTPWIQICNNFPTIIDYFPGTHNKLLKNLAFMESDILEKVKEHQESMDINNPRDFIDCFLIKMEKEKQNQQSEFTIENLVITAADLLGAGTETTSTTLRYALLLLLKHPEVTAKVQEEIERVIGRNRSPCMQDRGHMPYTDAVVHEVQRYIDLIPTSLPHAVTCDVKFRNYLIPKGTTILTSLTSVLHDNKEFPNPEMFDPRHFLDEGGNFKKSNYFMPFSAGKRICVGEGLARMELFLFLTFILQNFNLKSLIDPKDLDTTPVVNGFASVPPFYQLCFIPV

[19] = Half life in Sprague-Dawley rat at 2 mg/kg, po; type: ADME, organism-based; details: in vivo
[20] = molecular target: T3, Orexin/Hypocretin receptor type 1 (Homo sapiens) (UniProt O43613); details: CHO
T3 sequence (whole entry): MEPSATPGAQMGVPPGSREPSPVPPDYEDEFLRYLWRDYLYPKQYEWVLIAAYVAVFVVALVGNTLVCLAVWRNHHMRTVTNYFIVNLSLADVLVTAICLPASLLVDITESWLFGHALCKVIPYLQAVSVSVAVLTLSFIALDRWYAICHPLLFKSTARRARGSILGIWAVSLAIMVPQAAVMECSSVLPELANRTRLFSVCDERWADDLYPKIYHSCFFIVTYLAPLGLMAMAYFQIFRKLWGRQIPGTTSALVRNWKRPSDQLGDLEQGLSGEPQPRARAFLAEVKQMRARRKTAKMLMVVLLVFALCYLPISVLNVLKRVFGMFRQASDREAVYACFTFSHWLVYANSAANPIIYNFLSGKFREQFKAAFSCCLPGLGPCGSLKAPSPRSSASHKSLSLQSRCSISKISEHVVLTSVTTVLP
Description: Antagonist activity at human orexin receptor-1 expressed in CHO cells assessed as orexin-A-induced ERK1/2 phosphorylation after 2 hrs by fluorescence assay

[21] = Volume of distribution at steady state in Sprague-Dawley rat at 1 mg/kg, iv; type: ADME, organism-based; details: in vivo, read-out: Vdss
[22] = system: Salmonella typhimurium; test: Genotoxicity in Salmonella typhimurium by Ames test in absence of S9 fraction; type: toxicity, organism-based; details: salmonella enterica subsp. enterica serovar typhimurium
[23] = Clearance in Sprague-Dawley rat at 1 mg/kg, iv; type: ADME, organism-based; details: in vivo
[24] = system: Rattus norvegicus; test: Antiinsomnic activity in CD1 rat assessed as increase of promoted sleep at 3 to 10 mg/kg, po administered at circadian time 18 hrs measured after 3 hrs; type: functional
[25] = system: Rattus norvegicus; test: Antiinsomnic activity in CD1 rat assessed as increase of REM sleep at 3 mg/kg, po administered at circadian time 18 hrs measured after 3 hrs; type: functional
[26] = system: Rattus norvegicus; test: Antiinsomnic activity in CD1 rat assessed as reduction of time spent awake at 3 to 10 mg/kg, po administered at circadian time 18 hrs measured after 3 hrs; type: functional; parameters: scale not given: the % may be the effect or the level left
[27] = Volume of distribution at steady state in beagle dog at 1 mg/kg, iv; type: ADME, organism-based, Canis lupus familiaris; details: in vivo, read-out: Vdss
[28] = Oral bioavailability in beagle dog at 1 mg/kg; type: ADME, organism-based, Canis lupus familiaris; details: in vivo
[29] = Mean residence time in beagle dog; type: ADME, organism-based, Canis lupus familiaris; details: in vivo
[30] = system: Rattus norvegicus; test: Antiinsomnic activity in CD1 rat assessed as hypnotic effect at 3 to 10 mg/kg, po administered at circadian time 18 hrs measured after 2 to 3 hrs; type: functional, organism-based
[31] = Ratio of drug level in cerebrospinal fluid to brain in Sprague-Dawley rat at 1 mg/kg, iv after 0.5 hrs; type: ADME, organism-based, CSF/Brain; details: in vivo
[32] = Oral bioavailability in Sprague-Dawley rat at 2 mg/kg; type: ADME, organism-based; details: in vivo
[33] = molecular target: T4, Cytochrome P450 1A2 (Homo sapiens, UniProt P05177); test: Inhibition of CYP1A2 (unknown origin); type: ADME
T4 sequence (P05177 whole entry): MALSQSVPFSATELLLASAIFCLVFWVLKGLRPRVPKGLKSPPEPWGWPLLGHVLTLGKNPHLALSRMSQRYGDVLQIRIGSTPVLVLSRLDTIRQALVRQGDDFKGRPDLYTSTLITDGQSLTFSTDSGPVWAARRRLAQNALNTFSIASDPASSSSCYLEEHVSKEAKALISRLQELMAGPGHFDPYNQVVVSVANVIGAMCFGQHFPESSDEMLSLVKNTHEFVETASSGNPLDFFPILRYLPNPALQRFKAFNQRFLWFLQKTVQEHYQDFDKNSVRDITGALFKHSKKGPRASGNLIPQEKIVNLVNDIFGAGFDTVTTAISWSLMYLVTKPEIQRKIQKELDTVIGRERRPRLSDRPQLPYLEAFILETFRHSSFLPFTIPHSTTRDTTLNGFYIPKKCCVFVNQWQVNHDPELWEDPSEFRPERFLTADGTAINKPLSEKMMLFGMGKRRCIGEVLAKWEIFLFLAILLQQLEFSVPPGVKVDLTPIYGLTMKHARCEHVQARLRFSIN

With `COc1cc(N2C(=O)N(Cc3c(F)cc(F)cc3F)c3ncccc3S2(=O)=O)cnc1OC` the Activity [1] was “Non-toxic”, the fraction unbound [2] was 0.008 and the Activity [3] was 30.7%. It also gave a half-life [4] of 0.383 h, a Papp [5] of 52 ×10⁻⁶ cm/s and an IC50 [6] greater than 10 µM. For the same compound, the Tmax [7] was 0.4 h, the IC50 [8] was greater than 10 µM and the Activity [9] was 35%. For the same compound, the half-life [10] was greater than 1.83 h, the Ki [11] was 0.00251 µM and the clearance [12] was 13 mL/min/kg. It also gave a pKb [13] of 7.3, an AUC [14] of 2440 ng·h/mL and a Kp at 0.5 h [15] of 0.49. For the same compound, the IC50 [16] was greater than 10 µM, the half-life [17] was greater than 4.17 h and the IC50 [18] was greater than 10 µM. The half-life [19] was 1.8 h, the pKb [20] was 6.6 and the Vd [21] was 2.1 L/kg. The Activity [22] was “Non-toxic”, the clearance [23] was 18 mL/min/kg and the Activity [24] was 17.4%. It also gave an Activity [25] of 70.6%, an Activity [26] of 18.5% and a Vd [27] of 3 L/kg. The bioavailability [28] was 70%, the MRT [29] was 4 h and the Activity [30] was “Active”. For the same compound, the Ratio [31] was 0.01, the bioavailability [32] was 66% and the IC50 [33] was greater than 10 µM.
